Results on one molecule are retold here after patent US7833513B2, “Treatment of Alzheimer's Disease” (Rhode Island Hospital, priority 2004, dated 2010).

What all share (type): in vivo, Long Evans rat
One test deals with IGF-I receptor. As to conditions: temporal lobe membrane extracts.
Test [1] concerns GFAP, GSK-3β, phospho-GSK-3β, ubiquitin, tau, phospho-tau, β-actin. Nature of the test: ic-STZ model: Western blot analysis of temporal lobe tissue. As to conditions: 40 mg/kg ic-STZ, Mean±S.E.M. As to the method: Western blot analysis was used to assess the levels of Akt, phospho-Akt, GSK-3β, phospho-GSK-3β, Tau, and β-actin. […] Protein concentration was determined using the bicinchoninic acid (BCA) assay (Pierce, Rockford, Ill.). Samples containing 100 μg of protein were fractionated by sodium dodecyl sulfate, polyacrylamide gel electrophoresis (SDS-PAGE). (Ausubel et al., Current Protocols in Molecular Biology (2000)). Proteins were transferred to Immobilon-P (Millipore Corporation, Bedford, Mass.) PVDF membranes and non-specific binding sites were adsorbed with SuperBlock-TBS (Pierce, Rockford, Ill.). Membranes were incubated over night at 4° C. with primary antibody (0.5-1 μg/ml) diluted in Tris-buffered saline (TBS; 50 mM Tris, 150 mM NaCl, pH 7.4) containing 1% bovine serum albumin and 0.05% Tween-20 (TBST-BSA). Immunoreactivity was detected using horseradish peroxidase (HRP) conjugated IgG (Pierce, Rockford, Ill.), Western Lightning chemiluminescence reagents (Perkin Elmer Life Sciences Inc., Boston, Mass.), and film autoradiography. All incubations were performed using gentle platform agitation. Immunoreactivity was quantified using the Kodak Digital Science Imaging Station (NEN Life Sciences, Boston, Mass.).
Western blot analysis was used to assess the levels of tau, phospho-tau, ubiquitin, GSK-3β, phospho-GSK-3β, GFAP, and β-actin as described above.
Studies were performed to determine if ic-STZ-induced neurodegeneration was associated with increased activation of GSK-3β (reduced phospho-GSK-3β/total GSK-3β ratio) and increased levels of phospho-tau. Since characteristic features of AD-type neurodegeneration also include increased ubiquitination of proteins, including tau (Godbolt et al., Arch. Neurol. 62:1097 (2005); Kosik et al., Biochim. Biophys. Acta 1739:298 (2005); de Vrij et al., Prog. Neurobiol. 74:249 (2004)) and gliosis associated with cell loss, Western blot analysis was used to measure ubiquitin and GFAP immunoreactivity as well. β-actin expression was measured as a […].
Values correspond to arbitrary densitometry units (Mean±S.E.M.). Results were analyzed using Student t-tests.

Test [2] concerns brain immunoreactivity (p53, GFAP, phospho-tau, ubiquitin, Aβ, ChAT, AChE). Nature of the test: ic-STZ model: immunohistochemical staining of brain. An excerpt:
Paraffin-embedded histological sections of pancreas (5 μm thick) and brain (8 μm thick) were stained with hematoxylin and eosin (H&E) and examined for histopathological lesions, i.e., inflammation, necrosis, and islet cell degeneration. […] Paraffin sections of brain were immunostained with monoclonal or polyclonal antibodies to phospho-tau, Aβ, p53, ubiquitin, glial fibrillary acidic protein (GFAP), choline acetyltransferase (ChAT), and acetylcholinesterase (AChE) to characterize the nature of ic-STZ-induced AD-type neurodegeneration. As negative controls for the immunostaining reactions, either the primary antibody was omitted or non-relevant monoclonal antibody to Hepatitis B virus was used in place of the relevant antibody.
Prior to immunostaining, the deparaffinized, re-hydrated tissue sections were sequentially treated with 0.1 mg/ml saponin in phosphate buffered saline (10 mM sodium phosphate, 0.9% NaCl, pH 7.4; PBS), for 20 minutes at room temperature. Endogenous peroxidase activity was quenched by treating the tissue sections with 3% hydrogen peroxide in methanol for 10 minutes, and non-specific binding sites were blocked by a 30-minute incubation in SuperBlock-TBS (Pierce Chemical Co., Rockford, Ill.) at room temperature. After overnight incubation at 4° C. with antibodies diluted to 0.1-1 μg/ml (according to the manufacturer's recommendations), immunoreactivity was detected using rat tissue-pre-adsorbed biotinylated secondary antibodies, avidin biotin horseradish peroxidase complex (ABC) reagents, and diaminobenzidine as the chromogen (Vector Laboratories, Burlingame, Calif.). de la Monte et al., Lab. Invest. 80:1323 (2000). The sections were counterstained with hematoxylin and preserved with mounting medium and coverglass. All sections were examined under code.

[3] abbreviates: temporal cortex, hippocampus, hypothalamus/thalamus, cerebellar cortex.

With `CN(N=O)C(=O)NC1C(O)OC(CO)C(O)C1O` (stereo not shown) [STZ], the “IGF-I binding vs control” value in the test with IGF-I receptor is “increased, although the difference was not statistically significant”. Further, in test [1], the “GFAP protein (Western blot)” value is on record as 983591 ± 113549 arbitrary densitometry units, the “GSK-3β protein (Western blot)” value is on record as 149945 ± 15588 arbitrary densitometry units, the “Tau protein (Western blot)” value is 686442 ± 65138 arbitrary densitometry units and the “Ubiquitin protein (Western blot)” value is given as 1390824 ± 133586 arbitrary densitometry units. In test [1], the “p-GSK-3β protein (Western blot)” value is given as 2811 ± 296 arbitrary densitometry units; the “p-Tau protein (Western blot)” value is given as 3378 ± 920 arbitrary densitometry units; the “β-Actin protein (Western blot, negative control)” value is 196548 ± 14314 arbitrary densitometry units. For the same molecule, the “p53 immunoreactivity in brain” value in test [2] (14- and 21-day post-treatment) was “only slightly increased relative to control”. In addition, in test [2] (Day 7 post-treatment), the “p53 immunoreactivity in brain” value is “prominently increased”. For the same molecule, the Aβ immunoreactivity entry in test [2] (neurons, vessels, plaque-like deposits) is “increased”. In test [2] (rat, in vivo), the AChE immunoreactivity entry was “increased”, the ChAT immunoreactivity entry is “decreased” and the GFAP immunoreactivity entry is “globally increased”. For the same molecule, in test [2] (setting [3]), the phospho-tau immunoreactivity entry was “increased” and the ubiquitin immunoreactivity entry is recorded as “increased”.
